Reference: patent US20260207623A1, “USE OF ESTETROL IN HEPATICALLY IMPAIRED PATIENTS” (ESTETRA SRL, priority 2022, published 2026)
Several values for one entry are separate records, joined by “and”; a condition that tells them apart may be missing. Equal values may be shown once. Entries after “also recorded” stand apart in the source; their conditions may differ.

System: female subjects with normal hepatic function, mild, moderate or severe hepatic impairment
Assay: Safety and tolerability (TEAEs, clinical laboratory, vital signs, physical examination) after a single oral dose of 20 mg E4 monohydrate in the hepatic impairment study
Assay type: in vivo, human
Method: This was a Phase 1, multi-centre, open-label, PK, and safety study of a single oral dose of 20 mg E4 monohydrate in female subjects with normal hepatic function (Group 1), mild hepatic impairment (Group 2), moderate hepatic impairment (Group 3), and severe hepatic impairment (Group 4), as defined using the Child-Pugh classification at Screening.
Safety and tolerability assessments consisted of treatment-emergent AEs (TEAEs), clinical laboratory, vital signs, physical examination, and gynecological examination. Assessments were performed in accordance with Table 2 and Table 3 in Section 2.5.1.
AEs/TEAEs were recorded after signing of the ICF until completion of the follow up visit. Any clinically significant observations in results of clinical laboratory, vital signs, or physical examinations were recorded as AEs.
A TEAE is defined as any event not present prior to administration of the study drug or any event already present that worsens in either severity or frequency following exposure to the study drug.
The below listed tests were to be performed by the local laboratories at time points indicated in the Schedule of Assessments (Table 2).
Systolic and diastolic blood pressure and pulse were recorded after the subject had been resting for at least 5 minutes in the supine position at time points indicated in the Schedule of Assessments (Table 2). These assessments were made using an automated device. Body temperature and respiratory rate were measured subsequently.
A complete physical examination consisting of a review of all body systems was performed at time points indicated in the Schedule of Assessments (Table 2). A symptom-directed physical examination could be conducted at any time per Investigator's discretion.
2.6.2.2 Evaluation of Safety and Tolerability Safety and tolerability were assessed through TEAEs, clinical laboratory, vital signs, and physical examination findings, and any other parameter that was relevant for safety assessment.
A listing of all individual AEs is provided. Summary tables of TEAEs are presented by system organ class (SOC) based on the MedDRA terminology list (preferred terms): a table containing the number of subjects experiencing AEs by hepatic function, a table containing the number of subjects experiencing SAEs by hepatic function (if applicable), a table by hepatic function and relationship, and a table by hepatic function and severity.

[1] = Mild (N = 8), single oral dose 20 mg E4
[2] = Moderate (N = 8), single oral dose 20 mg E4
[3] = Normal (N = 8), single oral dose 20 mg E4
[4] = Severe (N = 8), single oral dose 20 mg E4
[5] = Total (N = 32), single oral dose 20 mg E4
[6] = all 32 subjects, single oral dose 20 mg E4
[7] = moderate hepatic impairment group

C[C@]12CC[C@@H]3c4ccc(O)cc4CC[C@H]3[C@@H]1[C@@H](O)[C@@H](O)[C@@H]2O [E4, 1,3,5 (10)-estratrien-3,15alpha, 16alpha, 17beta-tetrol]
Subjects by maximum relationship to study drug: Not related [1]: 2 (25.0) n (%)
Subjects by maximum relationship to study drug: Related [1]: 0 n (%)
Subjects with TEAEs by maximum severity: Mild [1]: 2 (25.0) n (%)
Subjects with TEAEs by maximum severity: Moderate [1]: 0 n (%)
Subjects with at least one AE [1]: 2 (25.0) n (%)
Subjects with at least one SAE [1]: 0 n (%)
Subjects with at least one TEAE [1]: 2 n (%) and 2 (25.0) n (%)
Subjects with at least one TEAE leading to study drug discontinuation [1]: 0 n (%)
Subjects by maximum relationship to study drug: Not related [2]: 3 (37.5) n (%)
Subjects by maximum relationship to study drug: Related [2]: 1 (12.5) n (%)
Subjects with TEAEs by maximum severity: Mild [2]: 3 (37.5) n (%)
Subjects with TEAEs by maximum severity: Moderate [2]: 1 (12.5) n (%)
Subjects with at least one AE [2]: 4 (50.0) n (%)
Subjects with at least one SAE [2]: 0 n (%)
Subjects with at least one TEAE [2]: 4 n (%) and 4 (50.0) n (%)
Subjects with at least one TEAE leading to study drug discontinuation [2]: 0 n (%)
Subjects by maximum relationship to study drug: Not related [3]: 2 (25.0) n (%)
Subjects by maximum relationship to study drug: Related [3]: 0 n (%)
Subjects with TEAEs by maximum severity: Mild [3]: 0 n (%)
Subjects with TEAEs by maximum severity: Moderate [3]: 2 (25.0) n (%)
Subjects with at least one AE [3]: 2 (25.0) n (%)
Subjects with at least one SAE [3]: 0 n (%)
Subjects with at least one TEAE [3]: 2 n (%) and 2 (25.0) n (%)
Subjects with at least one TEAE leading to study drug discontinuation [3]: 0 n (%)
Subjects by maximum relationship to study drug: Not related [4]: 1 (12.5) n (%)
Subjects by maximum relationship to study drug: Related [4]: 0 n (%)
Subjects with TEAEs by maximum severity: Mild [4]: 1 (12.5) n (%)
Subjects with TEAEs by maximum severity: Moderate [4]: 0 n (%)
Subjects with at least one AE [4]: 1 (12.5) n (%)
Subjects with at least one SAE [4]: 0 n (%)
Subjects with at least one TEAE [4]: 1 n (%) and 1 (12.5) n (%)
Subjects with at least one TEAE leading to study drug discontinuation [4]: 0 n (%)
Subjects by maximum relationship to study drug: Related [5]: 1 n (%) and 1 (3.1) n (%)
Subjects with TEAEs by maximum severity: Moderate [5]: 3 n (%) and 3 (9.4) n (%)
Subjects with at least one AE [5]: 9 (28.1) n (%)
Subjects with at least one SAE [5]: 0 n (%)
Subjects with at least one TEAE [5]: 9 n (%) and 9 (28.1) n (%)
Subjects with at least one TEAE leading to study drug discontinuation [5]: 0 n (%)
subjects reporting TEAE back pain [6]: 2 subjects
subjects reporting TEAE diarrhea [6]: 3 subjects
subjects reporting TEAE headache [6]: 2 subjects
subjects reporting TEAE hypertension [6]: 2 subjects
laboratory values, changes and shifts from baseline (hematology, clinical chemistry) (all hepatic function groups): did not show deviations or trends which would raise safety concerns
number of TEAEs considered of mild intensity (all subjects): Eleven
number of TEAEs considered of moderate intensity (all subjects): 4 TEAEs
blood pressure, pulse rate, respiratory rate, body temperature (changes from baseline): showed no trends or clinically relevant changes
number of TEAEs considered related to the study drug (diarrhea, mild intensity, 1 subject in the moderate group): 1 TEAE
subjects with TEAE hypertension (mild hepatic impairment group): 2 subjects
subjects reporting TEAE diarrhea [7]: 2 subjects
subjects reporting TEAE headache [7]: 2 subjects
subjects reporting TEAE back pain (normal hepatic function group): 1 subjects
subjects reporting TEAE diarrhea (normal hepatic function group): 1 subjects
vital signs, laboratory values, physical examination (overall conclusion): unremarkable
subjects reporting TEAE back pain (severe hepatic impairment group): 1 subjects
deaths, SAEs, other significant AEs (whole study): no subjects with SAEs; also recorded: No deaths, SAEs, or other significant AEs occurred
